pIC50: −log10 of the molar value.
Experiments:
[1] = Evaluated for cytotoxicity under aerobic conditions against AA8 cells using microassay; assay type: cell-based; conditions: Cricetulus griseus, CHO-AA8
[2] = species: Cricetulus griseus; assay: Evaluated for hypersensitivity factor (HF) (HF = IC50 AA8 / IC50 UV-4) values are intra experiment ratios; assay type: functional
[3] = Evaluated for cytotoxicity under aerobic conditions against UV4 cells using microassay; assay type: cell-based; conditions: Cricetulus griseus

Compound	pIC50 [1]	Ratio [2]	pIC50 [3]
O=[N+]([O-])c1cccc(N(CCO)CCO)c1	2.51		
CS(=O)(=O)OCCN(CCOS(C)(=O)=O)c1ccc([N+](=O)[O-])cc1		> 1	5.86
O=[N+]([O-])c1ccccc1N(CCO)CCO	2.10		
O=[N+]([O-])c1ccc(N(CCO)CCO)cc1	2.49		
CS(=O)(=O)OCCN(CCOS(C)(=O)=O)c1ccccc1	4.87	30	6.23

Source: ChEMBL document CHEMBL1124922 (J Med Chem, 1990)
